Source: US20080255121A1, “Combination Drug for Treating Autoimmune Disease” (DAINIPPON SUMITOMO PHARMA CO., LTD., priority 2004, published 2008)
Several values for one entry are separate records, joined by “and”; a condition that tells them apart may be missing. Identical values can stand only once.

How the values were obtained:
[1] = system: adjuvant-induced arthritis rats; test: Combination effect on adjuvant-induced arthritis, joint destruction score by soft X-ray (Example 20); format: in vivo, rat
Method: Combination effect for adjuvant-induced arthritic rats was examined in the same manner as in Example 17.
Euthanasia was carried out for all the rats by aspiration of high concentration carbon dioxide after the last administration. Both the hind paws were cut off at the middle point of […]. Both the hind paws were fixed with 10% neutral buffered formalin liquid. […] The degree of joint destruction was recorded with a score. Observed sites were three points of the tibia, calcaneum and tarsal bone, and the possible maximum score was 12.
1: Minimum destruction of joints and bones and new formation of cartilages
2: Mild destruction of joints and bones and new formation and light ossification of cartilages
3: Moderate destruction of joints and bones and ossification
4: Severe destruction and deformation of joints and bones and intense ossification

[2] = system: experimental allergic encephalomyelitis mice; test: Experimental allergic encephalomyelitis, Compound (I); format: in vivo
Excerpt: The severity of the condition was indicated as a score (disease score) according to the following criteria.
(§1) 0.5: Slight paralysis of tail
2: Light paralysis of hind paw
3: Medium to intense paralysis of hind paw or light forelimb paralysis
(§2) 4: Complete paralysis of hind paw or medium to intense paralysis of forelimb
(§3) 5: Paralysis of four limbs or toward death period
In the prednisolone administered group as a positive control, prednisolone was suspended in 0.5% methylcellulose solution to prepare a liquid of 0.3 mg/ml for administration and 0.1 ml per 10 g mouse weight was orally administered. In a control group, only 0.5% methylcellulose solution was […] administered. The administration was started on the sensitization day and carried out once a day for consecutive 40 days.

[3] = system: collagen-induced arthritis rats; conditions: reported in Patent Document 3 and Non-Patent Documents 3 to 5; cited from earlier work
[4] = system: adjuvant-induced arthritis rats; test: Adjuvant-induced arthritis, therapeutic and prophylactic model; format: in vivo, rat
Method: The adjuvant-induced arthritis model is a representative chronic inflammation model caused in rats, and it is widely used for pharmacological evaluation of antiinflammatory drugs and antirheumatic drugs. Accordingly, effects of Compound (I) and Compound (II) were examined in both therapeutic and prophylactic model. In the therapeutic model, the difference of the volume of a hind leg before and after the dosed period was calculated to examine edema suppression effect by the drug administration and the change of edema volume was examined. In the prophylactic model, the volume of a hind paw was measured over time during the dosed period and the effect of the drug for a long term period was examined. Although the hind paw volume or the edema volume was used as the index of efficacy evaluation, the edema volume means the increment from the normal volume of the hind paw which was not sensitized with the adjuvant, and therefore, the both indices can be used as approximately the same meaning.
A liquid paraffin suspension (1 mg/200 μl) of Mycobacterium butyricum (adjuvant) was subcutaneously injected at the tarsal part of the right hind paw of SD or Lewis rats (both male, six-week old) to cause arthritis. In the therapeutic model, 0.5% methylcellulose suspension of Compound (I) or Compound (II) which was prepared so that the dose was 1 ml per 100 g body weight was orally administered once a day for consecutive five days from the 17th day after the injection of the adjuvant. An indomethacin suspension prepared in the similar way was administered as the positive control. The volume of the hind paws was measured respectively for the right and the left by water replacement method just before the administration and in five hours after the last administration and the difference in the values just before the administration and in five hours after the last administration was calculated and assumed as the change in the edema volume. In the prophylatic model, the compounds were administered once a day for consecutive 21 days after the day when the adjuvant was injected. The volume of the right and left hind paws was measured by water replacement method every other day. In the prophylactic model of Compound (II), a suspension of D-penicillamine, an antirheumatic drug, was administered in the same way as a control.

[5] = system: adjuvant-induced arthritis rats; test: Combination effect on adjuvant-induced arthritis (Example 18); format: in vivo, rat; conditions: only Compound (I) 10 mg/kg oral 12 days from day 10
Method: Combination effect with Compound (I) and DMARDs (methotrexate) was examined in the same way as in Example 17.
Administration of a DMARD (methotrexate (0.060 mg/kg or 0.045 mg/kg; 0.5% methylcellulose suspension)) to the rat in which adjuvant-induced arthritis was caused in the same way as in Example 17 was started on the day when the adjuvant was injected and continued once a day for consecutive 21 days. Compound (I) (10 mg/kg) was orally administered singly or in combination once a day for consecutive 12 days from the 10 days after the sensitization. The volume of the left hind paw was measured by water replacement method every other day.

[6] = system: adjuvant arthritis rats; conditions: reported in Patent Documents 3, 4 and Non-Patent Documents 3 to 5; cited from earlier work
[7] = system: experimental allergic encephalomyelitis mice; test: Experimental allergic encephalomyelitis, KN-93; format: in vivo, mouse
Method: The efficacy evaluation of KN-93 was performed with the experimental allergic encephalomyelitis mice as an animal model of multiple sclerosis. The experimental allergic encephalomyelitis was caused following the method of Bradley et al. (J. Clinical Investigation, 107: 995-1006, 2001). That is, 150 μg of PLP partial peptide (PLP139-151: NH2—[…]—COOH, SEQ ID NO 12) mixed in a Freund complete adjuvant was injected subcutaneously to a seven-week old female SJL/J mouse (purchased from Charles River Laboratories Japan) at the rear back. The severity of the condition was indicated as a score (disease score) according to the following criteria.
as §1
2: Light paralysis of hind leg
3: Medium to intense paralysis of hind leg or light forelimb paralysis
as §2, §3
KN-93 was suspended in 0.5% methylcellulose solution (0.1 mg/ml) and 0.1 ml per 10 g mouse weight was subcutaneously administered. In a control group, only 0.5% methylcellulose solution was subcutaneously administered. The administration was started on the 7 days after sensitization and carried out once a day for consecutive 24 days.

[8] = Dose 20 mg/kg oral once a day 40 days
[9] = Dose 40 mg/kg oral once a day 40 days

| SMILES | joint destruction score of the left hind paw, representative individual which showed an average score in the group ([1]; Compound (I) 40 mg/kg and/or methotrexate 0.06 mg/kg, control score 3, maximum 12) | joint destruction score of the right hind paw, representative individual which showed an average score in the group ([1]; Compound (I) 40 mg/kg and/or methotrexate 0.06 mg/kg, control score 10, maximum 12) | joint destruction of right and left hind paws ([1]; Compound (I) 20, 40, 80 mg/kg in combination with methotrexate 0.06 mg/kg, 17 days) | joint destruction of right and left hind paws ([1]; only Compound (I) 20, 40, 80 mg/kg oral once a day 17 days) | disease score ([2]; 20, 40, 80 mg/kg oral once a day 40 days, FIG. 13) | Death Rate [2, 8] | Onset Rate [2, 8] | Death Rate [2, 9] | Onset Rate [2, 9] | Onset Rate ([2]; Dose 80 mg/kg oral once a day 40 days) | Death Rate ([2]; Dose 80 mg/kg oral once a day 40 days, 80 mg/kg) | effects on collagen-induced arthritis rats [3] | p, left hind paw volume (AUC value), Williams's multiple comparison ([4]; prophylactic model, 20 mg/kg) | hind paw volume / edema volume ([4]; prophylactic model, oral once a day for 21 days, Compound (I) 2.5 to 80 mg/kg, Compound (II) 50 mg/kg, FIGS. 8 and 9) | change of edema volume of hind paw ([4]; therapeutic model, oral once a day for five days from 17th day, Compound (I) 2.5 to 80 mg/kg, Compound (II) 10 to 50 mg/kg, FIGS. 6 and 7) | onset ratio and volume of left hind paw [5] | effects on adjuvant arthritis rats [6] | condition (disease score) ([7]; 1 mg/kg subcutaneous once a day 24 days from 7 days after sensitization, FIG. 12) | death ([7]; 1 mg/kg subcutaneous once a day 24 days, control 7 of 10) |
| --- | --- | --- | --- | --- | --- | --- | --- | --- | --- | --- | --- | --- | --- | --- | --- | --- | --- | --- | --- |
| C[C@@H](c1ccc(-c2ccccc2)c(F)c1)c1cc(/N=C(/N)N2CCOCC2)on1 [Compound (I), 3-[(1S)-1-(2-fluorobiphenyl-4-yl)ethyl]-5-{[amino(morpholin-4-yl)methylene]amino}isoxazole] | 1 | 5 | dose-dependently and conspicuously enhanced joint destruction suppressing effect of methotrexate | dose-dependently showed joint destruction suppressing effect | suppressed the disease score at any dose | 0/10 | 8/10 | 0/10 | 7/10 | 8/10 | 1 of 10 and 1/10 | anti-arthritis effects | < 0.05 | remarkable edema suppressing effect | remarkable edema suppressing effect | very little effect | anti-arthritis effects |  |  |
| COc1ccc(S(=O)(=O)N(CCO)c2ccccc2CN(C)C/C=C/c2ccc(Cl)cc2)cc1 [KN-93, N-(2-[N-[4-chlorocinnamyl]-N-methylaminomethyl]phenyl)-N-(2-hydroxyethyl)-4-methoxybenzenesulfonamide, reference compound] |  |  |  |  |  |  |  |  |  |  |  |  |  |  |  |  |  | much lighter as compared with the control group | 2 of 10 |
